According to US20130029942A1, “COMPOUNDS AND THERAPEUTICAL USES THEREOF” (Myrexis, Inc., priority 2003, published 2013):
Where a name gives a salt, the structure may show the parent alone.

tested on: P388 murine leukemia cell line; test: P388 cytotoxicity (ATP-Lite, 72 hours); type: cell-based; conditions: Mus musculus, P388, 72 hours
Experimental: A P388 murine leukemia cell line was obtained from NCI, Frederick, Md. P388 cells were cultured in RPMI-1640 supplemented with 10% fetal bovine serum, 2 mM Glutamax, 1 mM sodium pyruvate, 0.1 mM non-essential amino acids and 10 mM HEPES. Cells were grown at 37° C. in a humidified 5% CO2 atmosphere. Exponentially growing P388 cells were plated at 5,000 cells/well in a 96-well flat-bottomed microtiter plate (Corning, Costar #3595). […] Cellular viability was determined 72 hours later by measuring intracellular ATP with ATP-Lite assay system. The effect of compounds on cell viability was calculated by comparing the ATP levels of cells exposed to test compound with those of cells exposed to DMSO. […] Data was analyzed by Prism software (GraphPad; San Diego, Calif.) by fitting it to a sigmoidal dose response curve.

**Q.** Which IC50 does the source give for `Cc1nc(N(C)c2ccc(OC(F)F)cc2)c2cc([N+](=O)[O-])ccc2n1` [Example 209, (4-Difluoromethoxy-phenyl)-methyl-(2-methyl-6-nitro-quinazolin-4-yl)-amine] here?
**A.** 490 nM

**Q.** For `CCOc1ccc(N(C)c2nc(CN3C(=O)c4ccccc4C3=O)nc3ccccc23)cc1Cl` [Example 260, 2-{4-[(3-Chloro-4-ethoxy-phenyl)-methyl-amino]-quinazolin-2-ylmethyl}-isoindole-1,3-dione], which IC50 is on record?
**A.** 469 nM

**Q.** Which IC50 does the source give for `COc1c(Cl)cc(N(C)c2nc(CN)nc3ccccc23)cc1Cl` [Example 254, (2-Aminomethyl-quinazolin-4-yl)-(3,5-dichloro-4-methoxy-phenyl)-methyl-amine bis(hydrochloride)] here?
**A.** 5200 nM

**Q.** Which IC50 does the source give for `CNc1nc2c(c(N(C)c3ccc(OC)cc3)n1)CCCC2` [Example 192, N^4-(4-Methoxy-phenyl)-N^2,N^4-dimethyl-5,6,7,8-tetrahydro-quinazoline-2,4-diamine] here?
**A.** 19 nM

**Q.** How did the IC50 turn out when `CCOC(=O)CNc1nc2c(c(N(C)c3ccc(OC)cc3)n1)CCCC2` [Example 191, {4-[(4-Methoxy-phenyl)-methyl-amino]-5,6,7,8-tetrahydro-quinazolin-2-ylamino}-acetic acid ethyl ester] was run?
**A.** 470 nM

**Q.** For `COc1ccc(N(C)c2nc(NCCCO)nc3ccccc23)cc1` [Example 180, 3-{4-[(4-Methoxy-phenyl)-methyl-amino]-quinazolin-2-ylamino}-propan-1-ol], which IC50 is on record?
**A.** 5 nM

**Q.** For `COc1ccccc1CN(C)c1nc(Cl)nc2ccccc12` [Example 177, (2-Chloro-quinazolin-4-yl)-(2-methoxy-benzyl)-methyl-amine], which IC50 is on record?
**A.** 970 nM

**Q.** For `COc1ccc(N(C)c2nc(NCCN)nc3ccc(OC)cc23)cc1` [Example 175, N^2-(2-Amino-ethyl)-6-methoxy-N^4-(4-methoxy-phenyl)-N^4-methyl-quinazoline-2,4-diamine], which IC50 is on record?
**A.** 5000 nM

**Q.** `COc1ccc(N(C)c2nc(N(C)CCO)nc3ccccc23)cc1` [Example 174, 2-({4-[(4-Methoxy-phenyl)-methyl-amino]-quinazolin-2-yl}-methyl-amino)-ethanol] was tested. Which IC50 did it give?
**A.** 22 nM

**Q.** How did the IC50 turn out when `COc1ccc(N(C)c2nc(N(C)C)nc3ccccc23)cc1OC` [Example 168, N^4-(3,4-Dimethoxy-phenyl)-N^2,N^2,N^4-trimethyl-quinazoline-2,4-diamine] was run?
**A.** 45 nM

**Q.** `COc1ccc(N(C)c2nc(CN)nc3ccccc23)cc1Cl` [Example 240, (2-Aminomethyl-quinazolin-4-yl)-(3-chloro-4-methoxy-phenyl)-methyl-amine] was tested. Which IC50 did it give?
**A.** 6 nM

**Q.** `CNc1nc2c(c(N(C)c3ccc(OC)cc3)n1)CCC2` [Example 200, N^4-(4-Methoxy-phenyl)-N^2,N^4-dimethyl-6,7-dihydro-5H-cyclopentapyrimidine-2,4-diamine] was tested. Which IC50 did it give?
**A.** 7 nM

**Q.** For `COc1ccc(N(C)c2nc(CN3CCCC3=O)nc3ccccc23)cc1` [Example 255, 1-{4-[(4-Methoxy-phenyl)-methyl-amino]-quinazolin-2-ylmethyl}-pyrrolidin-2-one], which IC50 is on record?
**A.** 610 nM

**Q.** `COc1ccc(N(C)c2nc(CNC(=O)[C@@H](C)N)nc3ccccc23)cc1` [Example 248, (R)-2-Amino-N-{4-[(4-methoxy-phenyl)-methyl-amino]-quinazolin-2-ylmethyl}-propionamide] was tested. Which IC50 did it give?
**A.** 222 nM

**Q.** For `COc1ccc(N(C)c2nc(C)nc3ccsc23)cc1` [Example 185, (4-Methoxy-phenyl)-methyl-(2-methyl-thieno[3,2-d]pyrimidin-4-yl)-amine], which IC50 is on record?
**A.** 7 nM

**Q.** Which IC50 does the source give for `CCOc1ccc(N(C)c2nc(C)nc3ccc(N)cc23)cc1` [Example 214, N^4-(4-Ethoxy-phenyl)-2,N^4-dimethyl-quinazoline-4,6-diamine] here?
**A.** 9 nM

**Q.** For `Cc1nc(N(C)c2ccc(OC(F)F)cc2)c2cc(N)ccc2n1` [Example 216, N^4-(4-Difluoromethoxy-phenyl)-2,N^4-dimethyl-quinazoline-4,6-diamine], which IC50 is on record?
**A.** 20 nM

**Q.** `COc1ccc(N(C)c2nc(NCCCl)nc3ccccc23)cc1` [Example 178, N^2-(2-Chloro-ethyl)-N^4-(4-methoxy-phenyl)-N^4-methyl-quinazoline-2,4-diamine] was tested. Which IC50 did it give?
**A.** 18 nM

**Q.** `COc1ccc(N(C)c2nc(NCCCCN)nc3ccccc23)cc1` [Example 184, N^2-(4-Amino-butyl)-N^4-(4-methoxy-phenyl)-N^4-methyl-quinazoline-2,4-diamine] was tested. Which IC50 did it give?
**A.** 500 nM

**Q.** How did the IC50 turn out when `COc1ccc(N(C)c2nc(C)nc3sccc23)cc1` [Example 176, (4-Methoxy-phenyl)-methyl-(2-methyl-thieno[2,3-d]pyrimidin-4-yl)-amine] was run?
**A.** 3 nM

**Q.** How did the IC50 turn out when `CC(C)Oc1ccc(N(C)c2nc(CN)nc3ccc(N)cc23)cc1` [Example 220, 2-Aminomethyl-N^4-(4-isopropoxy-phenyl)-N^4-methyl-quinazoline-4,6-diamine] was run?
**A.** 870 nM

**Q.** Which IC50 does the source give for `COc1ccc(N(C)c2nc(C(F)(F)F)nc3ccccc23)cc1` [Example 199, (4-Methoxy-phenyl)-methyl-(2-trifluoromethyl-quinazolin-4-yl)-amine] here?
**A.** 3 nM

**Q.** `COc1ccc(N(C)c2nc(CCN)nc3ccccc23)cc1` [Example 212, [2-(2-Amino-ethyl)-quinazolin-4-yl]-(4-methoxy-phenyl)-methyl-amine] was tested. Which IC50 did it give?
**A.** 250 nM

**Q.** For `CONc1nc(N(C)c2ccc(OC)cc2)c2ccccc2n1` [Example 172, N-{4-[(4-Methoxy-phenyl)-methyl-amino]-quinazolin-2-yl}-O-methyl-hydroxylamine], which IC50 is on record?
**A.** 2 nM

**Q.** How did the IC50 turn out when `Cc1nc(N(C)c2ccc(OCC(=O)O)cc2)c2ccccc2n1` [Example 144, {4-[Methyl-(2-methyl-quinazolin-4-yl)-amino]phenoxy}-acetic acid] was run?
**A.** 1700 nM

**Q.** With `CNc1ccc(N(C)c2nc(C)nc3ccc(N)cc23)cc1` [Example 225, 2,N^4-Dimethyl-N^4-(4-methylamino-phenyl)-quinazoline-4,6-diamine] as the compound, how does the IC50 read?
**A.** 37 nM

**Q.** `COc1ccc(N(C)c2nc(NCCO)nc3c2CCCC3)cc1` [Example 194, 2-{4-[(4-Methoxy-phenyl)-methyl-amino]-5,6,7,8-tetrahydro-quinazolin-2-ylamino}-ethanol] was tested. Which IC50 did it give?
**A.** 20 nM

**Q.** `COc1ccc(N(C)c2nc(NCCCCO)nc3ccccc23)cc1` [Example 181, 4-{4-[(4-Methoxy-phenyl)-methyl-amino]-quinazolin-2-ylamino}-butan-1-ol] was tested. Which IC50 did it give?
**A.** 13 nM

**Q.** How did the IC50 turn out when `CCOc1ccc(N(C)c2nc(CN)nc3ccccc23)cc1F` [Example 235, (2-Aminomethyl-quinazolin-4-yl)-(4-ethoxy-3-fluoro-phenyl)-methyl-amine] was run?
**A.** 5 nM

**Q.** How did the IC50 turn out when `COc1ccc(N(C)c2nc(C)nc3ccc([N+](=O)[O-])cc23)cc1F` [Example 210, (3-Fluoro-4-methoxy-phenyl)-methyl-(2-methyl-6-nitro-quinazolin-4-yl)-amine] was run?
**A.** 57 nM

**Q.** With `COc1ccc(N(C)c2nc(C)nc3ccc(N)cc23)cc1OC` [Example 223, N^4-(3,4-Dimethoxy-phenyl)-2,N^4-dimethyl-quinazoline-4,6-diamine] as the compound, how does the IC50 read?
**A.** 64 nM

**Q.** How did the IC50 turn out when `COc1ccc(N(C)c2nc(CNCCCO)nc3ccccc23)cc1` [Example 256, 3-({4-[(4-Methoxy-phenyl)-methyl-amino]-quinazolin-2-ylmethyl}-amino)-propan-1-ol] was run?
**A.** 1800 nM

**Q.** For `COc1ccc(N(C)c2nc(-c3nnn[nH]3)nc3ccccc23)cc1` [Example 247, (4-Methoxy-phenyl)-methyl-[2-(1H-tetrazol-5-yl)-quinazolin-4-yl]-amine], which IC50 is on record?
**A.** 60 nM

**Q.** Which IC50 does the source give for `COc1ccc(N(C)c2nc(OC(C)C)nc3ccccc23)cc1` [Example 156, (2-Isopropoxy-quinazolin-4-yl)-(4-methoxy-phenyl)-methyl-amine] here?
**A.** 6 nM

**Q.** Which IC50 does the source give for `COc1ccc(N(C)c2nc(CN)nc3ccccc23)c(F)c1` [Example 218, (2-Aminomethyl-quinazolin-4-yl)-(2-fluoro-4-methoxy-phenyl)-methyl-amine] here?
**A.** 12 nM

**Q.** `COc1ccc(N(C)c2nc(CN)nc3ccc(-c4ccccc4)cc23)cc1` [Example 243, (2-Aminomethyl-6-phenyl-quinazolin-4-yl)-(4-methoxy-phenyl)-methyl-amine] was tested. Which IC50 did it give?
**A.** 4200 nM

**Q.** With `CNc1nc(N(C)c2ccc(OC)c(OC)c2)c2ccccc2n1` [Example 167, N^4-(3,4-Dimethoxy-phenyl)-N^2,N^4-dimethyl-quinazoline-2,4-diamine] as the compound, how does the IC50 read?
**A.** 15 nM

**Q.** For `CNCc1nc(N(C)c2ccc(OC)cc2)c2ccccc2n1` [Example 233, (4-Methoxy-phenyl)-methyl-(2-methylaminomethyl-quinazolin-4-yl)-amine], which IC50 is on record?
**A.** 1100 nM

**Q.** With `CC(C)Oc1ccc(N(C)c2nc(CN)nc3ccccc23)cc1` [Example 217, (2-Aminomethyl-quinazolin-4-yl)-(4-isopropoxy-phenyl)-methyl-amine] as the compound, how does the IC50 read?
**A.** 18 nM

**Q.** For `COc1ccc(N(C)c2nc(NCCO)nc3ccc([N+](=O)[O-])cc23)cc1` [Example 186, 2-{4-[(4-Methoxy-phenyl)-methyl-amino]-6-nitro-quinazolin-2-ylamino}-ethanol], which IC50 is on record?
**A.** 1800 nM

**Q.** How did the IC50 turn out when `CNc1nc2c(c(N(C)c3ccc(OC)cc3)n1)CCCCC2` [Example 201, N4-(4-Methoxy-phenyl)-N2,N4-dimethyl-6,7,8,9-tetrahydro-5H-cycloheptapyrimidine-2,4-diamine] was run?
**A.** 76 nM

**Q.** How did the IC50 turn out when `COc1ccc(N(C)c2nc(C)nc3ccc(N)cc23)cc1F` [Example 215, N^4-(3-Fluoro-4-methoxy-phenyl)-2,N^4-dimethyl-quinazoline-4,6-diamine] was run?
**A.** 3 nM

**Q.** How did the IC50 turn out when `COc1ccc(N(C)c2nc(CNC(=O)[C@H](C)N)nc3ccccc23)cc1` [Example 238, (S)-2-Amino-N-{4-[(4-methoxy-phenyl)-methyl-amino]-quinazolin-2-ylmethyl}-propionamide] was run?
**A.** 12 nM

**Q.** `COc1ccc(N(C)c2nc(CN)nc3ccc(F)cc23)cc1` [Example 205, (2-Aminomethyl-6-fluoro-quinazolin-4-yl)-(4-methoxy-phenyl)-methyl-amine] was tested. Which IC50 did it give?
**A.** 19 nM
